The values that follow come from EP1824830B1, “RADIOLABELLED QUINOLINE-BASED LIGANDS FOR THE 5-HT6 RECEPTOR FUNCTIONALITY” (GLAXO GROUP LIMITED, priority 2004, dated 2006).

Data set [1] relates to 5-HT6 receptors. Briefly: PET imaging, saturation of 5-HT6 receptors in the brain.
Method: Yorkshire/Danish Landrace porcines (- 40 Kg; n=4) were housed singly in thermostatically controlled (20 °C) and naturally illuminated stalls. The pigs were provided with Soavl® chow (DLG, Denmark) and water ad libitum by trough. Animals were fasted for 24 hours prior to PET examination, with free access to water during this interval. Animals were anaesthetised by induction with ketamine and midazolam (both intramuscular and intravenous (i.v.)) and maintained in deep anaesthesia using isoflurane (1 - 2 %; Abbott, Denmark). The left femoral artery and vein of each animal were surgically cannulated using catheters (Avanti® size 4F-7F). The femoral artery for blood sampling and blood pressure (BP) recordings and the femoral vein for administration of radiolabelled and non-labelled agents. Animals were placed supine in a Siemens ECAT EXACT HR tomograph, with the head immobilised in a custom-made holding device. During the study, blood pH, pCO2 and pO2 levels were monitored and maintained within the normal physiological range. In addition, BP and heart rate were recorded throughout the study. At the end of each study day, the animal was terminated via an intravenous dose of sodium pentobarbital (20 ml). [^11C]GSK215083 was administered intravenously in the femoral vein as a 1 minute bolus injection. PET scanning and arterial blood sampling was commenced upon start of the radioligand administration.
Four sequential high specific activity iv radioligand ([^11C]GSK215083) administrations were performed in same animal, same day. Following a baseline scan, [^11C] GSK215083 was coadministered with escalating dose of unlabelled GSK215083 (0.005, 0.05 and 0.5mg/kg). [^15O]CO and [^15O]H2O were administered pre and post administration of GSK215083 to monitor and to correct for changes in cerebral blood volume and changes in cerebral blood flow.
For the next data set, the target named is 5-HT2A (Homo sapiens, UniProt P28223). Briefly: Binding profile.
Data set [2] has as its target T1, human recombinant 5-HT6 receptor (Homo sapiens, UniProt P50406).
T1 construct: expressed in transfected cells; host or cells: HeLa
In words: Radioligand binding, competition studies with [^3H]LSD. The source says: (§1) Table 1. Binding Profile (pKi values) of GSK215083

Another data set concerns the target Dopamine D2 (Homo sapiens, UniProt P14416). In words: Binding profile.
Text: as §1

The next data set has as its target 5-HT2B (Homo sapiens, UniProt P41595). In words: Binding profile.
Text: as §1

Another data set has as its target T2, α1B adrenoreceptor (Homo sapiens, UniProt P35368).
T2 sequence (P35368 1-520): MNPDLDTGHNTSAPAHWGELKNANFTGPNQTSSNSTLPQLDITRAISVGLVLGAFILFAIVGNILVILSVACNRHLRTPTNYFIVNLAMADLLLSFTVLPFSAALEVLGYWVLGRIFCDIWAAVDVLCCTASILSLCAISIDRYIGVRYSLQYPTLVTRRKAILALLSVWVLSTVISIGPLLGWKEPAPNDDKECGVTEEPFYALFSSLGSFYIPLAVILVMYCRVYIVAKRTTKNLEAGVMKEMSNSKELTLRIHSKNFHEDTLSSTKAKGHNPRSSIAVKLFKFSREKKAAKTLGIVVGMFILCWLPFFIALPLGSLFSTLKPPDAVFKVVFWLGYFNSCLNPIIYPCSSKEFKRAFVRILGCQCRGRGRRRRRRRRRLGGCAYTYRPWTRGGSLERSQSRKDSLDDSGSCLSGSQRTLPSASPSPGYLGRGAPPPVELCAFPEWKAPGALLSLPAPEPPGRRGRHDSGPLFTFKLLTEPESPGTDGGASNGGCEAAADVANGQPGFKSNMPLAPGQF
Briefly: Binding profile.
Text: as §1

A further data set concerns the target 5-HT1D (Homo sapiens, UniProt P28221). Briefly: Binding profile.
Text: as §1

The target of a further data set is T3, 5-HT2C (Homo sapiens, UniProt P28335).
T3 sequence (P28335 33-458): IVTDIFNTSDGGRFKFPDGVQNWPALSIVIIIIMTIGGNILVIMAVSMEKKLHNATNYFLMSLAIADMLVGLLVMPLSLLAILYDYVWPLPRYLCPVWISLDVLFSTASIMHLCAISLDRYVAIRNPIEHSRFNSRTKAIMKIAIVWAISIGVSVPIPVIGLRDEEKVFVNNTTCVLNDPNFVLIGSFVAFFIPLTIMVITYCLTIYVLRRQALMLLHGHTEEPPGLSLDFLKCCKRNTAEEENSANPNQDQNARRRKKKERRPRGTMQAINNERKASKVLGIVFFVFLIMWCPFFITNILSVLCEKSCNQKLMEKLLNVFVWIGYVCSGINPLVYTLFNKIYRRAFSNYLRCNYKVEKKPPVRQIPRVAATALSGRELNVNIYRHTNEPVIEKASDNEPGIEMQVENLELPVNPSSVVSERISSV
Briefly: Binding profile.
Text: as §1

The next data set concerns the target T4, 5-HT1A (Homo sapiens, UniProt P08908).
T4 sequence (P08908 1-422): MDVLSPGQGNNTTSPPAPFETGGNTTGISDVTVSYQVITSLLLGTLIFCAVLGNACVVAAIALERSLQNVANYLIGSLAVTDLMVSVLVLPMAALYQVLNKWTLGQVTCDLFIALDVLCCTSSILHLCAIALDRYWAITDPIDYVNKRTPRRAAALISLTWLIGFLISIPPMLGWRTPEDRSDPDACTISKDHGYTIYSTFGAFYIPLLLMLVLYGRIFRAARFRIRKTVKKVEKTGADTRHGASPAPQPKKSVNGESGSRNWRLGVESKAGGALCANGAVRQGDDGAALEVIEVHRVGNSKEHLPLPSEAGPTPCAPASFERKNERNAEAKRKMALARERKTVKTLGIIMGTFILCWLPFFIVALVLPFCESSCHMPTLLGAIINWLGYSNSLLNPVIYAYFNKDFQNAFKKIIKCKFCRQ
Briefly: Binding profile.
Text: as §1

Another data set addresses 5-HT1B (Homo sapiens, UniProt P28222). In words: Binding profile.
Text: as §1

The target in another data set is Dopamine D3 (Homo sapiens, UniProt P35462). Briefly: Binding profile.
Text: as §1

For a further data set, the target named is 5-HT7 (Homo sapiens, UniProt P34969). In words: Binding profile.
Text: as §1

Data set [3] deals with 5-HT6 receptors. The note with it: PET.
Method: Yorkshire/Danish Landrace porcines (- 40 Kg; n=4) were housed singly in thermostatically controlled (20 °C) and naturally illuminated stalls. The pigs were provided with Soavl® chow (DLG, Denmark) and water ad libitum by trough. Animals were fasted for 24 hours prior to PET examination, with free access to water during this interval. Animals were anaesthetised by induction with ketamine and midazolam (both intramuscular and intravenous (i.v.)) and maintained in deep anaesthesia using isoflurane (1 - 2 %; Abbott, Denmark). The left femoral artery and vein of each animal were surgically cannulated using catheters (Avanti® size 4F-7F). The femoral artery for blood sampling and blood pressure (BP) recordings and the femoral vein for administration of radiolabelled and non-labelled agents. Animals were placed supine in a Siemens ECAT EXACT HR tomograph, with the head immobilised in a custom-made holding device. During the study, blood pH, pCO2 and pO2 levels were monitored and maintained within the normal physiological range. In addition, BP and heart rate were recorded throughout the study. At the end of each study day, the animal was terminated via an intravenous dose of sodium pentobarbital (20 ml). […] PET scanning and arterial blood sampling was commenced upon start of the radioligand administration.
[4] abbreviates: 60min post administration of 0.5mg/kg GSK215083 with [^11C]GSK215083.
[5] abbreviates: 60 min post coinjection of [^11C]GSK215083 with 0.005mg/kg of GSK215083.
Where [6] appears, read: [^11C]GSK215083 coadministered with 0.05mg/kg of GSK215083.
[7] abbreviates: baseline scan, 60 min post injection of [^11C]GSK215083.

Each structure is given as a SMILES string.

As usually defined, the Ki is a measure of affinity in units of concentration, obtained from inhibition or displacement.

T1 sequence (P50406 whole entry): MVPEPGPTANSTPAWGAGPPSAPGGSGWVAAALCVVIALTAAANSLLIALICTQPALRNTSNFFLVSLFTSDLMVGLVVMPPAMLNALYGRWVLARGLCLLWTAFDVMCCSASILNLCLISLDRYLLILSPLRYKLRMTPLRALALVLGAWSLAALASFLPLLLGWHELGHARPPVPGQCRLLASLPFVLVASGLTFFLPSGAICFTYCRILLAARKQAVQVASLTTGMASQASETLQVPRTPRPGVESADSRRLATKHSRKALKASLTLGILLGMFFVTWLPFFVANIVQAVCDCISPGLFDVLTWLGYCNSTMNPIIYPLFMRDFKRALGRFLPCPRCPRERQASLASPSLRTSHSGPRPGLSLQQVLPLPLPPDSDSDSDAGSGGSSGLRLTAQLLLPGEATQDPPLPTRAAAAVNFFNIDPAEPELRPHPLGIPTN
Chain of 5-HT1B (P28222 whole entry, species assumed): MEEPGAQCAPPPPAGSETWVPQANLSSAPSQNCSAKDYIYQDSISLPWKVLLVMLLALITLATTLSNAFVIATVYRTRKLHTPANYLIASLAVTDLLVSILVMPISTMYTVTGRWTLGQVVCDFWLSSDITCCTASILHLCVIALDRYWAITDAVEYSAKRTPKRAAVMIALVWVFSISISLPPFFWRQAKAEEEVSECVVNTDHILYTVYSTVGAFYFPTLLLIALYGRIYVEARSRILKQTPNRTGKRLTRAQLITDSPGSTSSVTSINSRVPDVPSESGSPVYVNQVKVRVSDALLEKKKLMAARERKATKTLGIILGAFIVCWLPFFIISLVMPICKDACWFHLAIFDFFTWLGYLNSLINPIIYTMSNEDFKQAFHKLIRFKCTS
Chain of Dopamine D2 (P14416 whole entry): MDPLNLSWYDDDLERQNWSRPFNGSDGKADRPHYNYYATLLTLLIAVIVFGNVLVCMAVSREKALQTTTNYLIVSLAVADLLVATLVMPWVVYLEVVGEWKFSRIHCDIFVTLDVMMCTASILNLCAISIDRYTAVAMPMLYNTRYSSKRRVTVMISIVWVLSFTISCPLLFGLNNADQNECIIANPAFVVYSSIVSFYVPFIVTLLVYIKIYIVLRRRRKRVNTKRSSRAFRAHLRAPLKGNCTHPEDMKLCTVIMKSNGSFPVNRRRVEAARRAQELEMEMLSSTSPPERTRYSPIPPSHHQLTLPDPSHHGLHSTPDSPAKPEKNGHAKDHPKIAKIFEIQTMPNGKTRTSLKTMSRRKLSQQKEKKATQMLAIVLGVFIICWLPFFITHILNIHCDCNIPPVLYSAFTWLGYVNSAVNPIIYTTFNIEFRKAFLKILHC
Chain of 5-HT1D (P28221 whole entry, species assumed): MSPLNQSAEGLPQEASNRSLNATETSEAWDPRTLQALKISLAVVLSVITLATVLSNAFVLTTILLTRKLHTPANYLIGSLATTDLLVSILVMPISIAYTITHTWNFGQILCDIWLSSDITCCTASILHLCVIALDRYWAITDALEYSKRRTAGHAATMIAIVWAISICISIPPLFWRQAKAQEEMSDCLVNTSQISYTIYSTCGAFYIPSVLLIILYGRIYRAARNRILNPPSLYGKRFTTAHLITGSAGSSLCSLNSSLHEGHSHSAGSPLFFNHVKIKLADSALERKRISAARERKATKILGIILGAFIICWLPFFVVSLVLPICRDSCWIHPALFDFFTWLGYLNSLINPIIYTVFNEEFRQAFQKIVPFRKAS
Chain of 5-HT7 (P34969 whole entry, species assumed): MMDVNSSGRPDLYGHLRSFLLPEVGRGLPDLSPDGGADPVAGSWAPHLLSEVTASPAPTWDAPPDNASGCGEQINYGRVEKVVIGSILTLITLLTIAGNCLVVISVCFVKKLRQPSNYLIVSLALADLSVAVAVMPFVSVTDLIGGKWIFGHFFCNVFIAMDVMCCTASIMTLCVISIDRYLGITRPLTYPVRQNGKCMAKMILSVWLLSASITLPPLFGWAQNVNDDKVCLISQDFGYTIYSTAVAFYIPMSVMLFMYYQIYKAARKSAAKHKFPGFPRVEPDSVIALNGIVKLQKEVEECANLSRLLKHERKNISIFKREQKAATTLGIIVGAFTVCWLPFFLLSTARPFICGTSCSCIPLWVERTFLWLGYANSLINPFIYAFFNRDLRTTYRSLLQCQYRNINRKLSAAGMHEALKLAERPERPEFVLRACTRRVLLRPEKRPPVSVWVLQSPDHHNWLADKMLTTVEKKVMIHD
Chain of 5-HT2A (P28223 whole entry, species assumed): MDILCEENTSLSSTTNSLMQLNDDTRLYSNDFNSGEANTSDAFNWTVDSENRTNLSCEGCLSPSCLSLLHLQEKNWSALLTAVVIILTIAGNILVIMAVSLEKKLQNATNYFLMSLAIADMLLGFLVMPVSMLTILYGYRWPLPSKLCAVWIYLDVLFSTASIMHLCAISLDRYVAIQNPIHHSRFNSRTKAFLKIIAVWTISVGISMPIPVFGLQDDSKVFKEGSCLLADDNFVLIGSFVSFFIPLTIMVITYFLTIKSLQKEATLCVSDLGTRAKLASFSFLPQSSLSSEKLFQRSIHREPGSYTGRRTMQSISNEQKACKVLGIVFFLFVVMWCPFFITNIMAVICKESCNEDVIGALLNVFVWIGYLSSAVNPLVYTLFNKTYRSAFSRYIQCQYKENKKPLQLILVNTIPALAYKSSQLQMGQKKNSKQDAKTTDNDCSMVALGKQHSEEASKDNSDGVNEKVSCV
Chain of Dopamine D3 (P35462 whole entry): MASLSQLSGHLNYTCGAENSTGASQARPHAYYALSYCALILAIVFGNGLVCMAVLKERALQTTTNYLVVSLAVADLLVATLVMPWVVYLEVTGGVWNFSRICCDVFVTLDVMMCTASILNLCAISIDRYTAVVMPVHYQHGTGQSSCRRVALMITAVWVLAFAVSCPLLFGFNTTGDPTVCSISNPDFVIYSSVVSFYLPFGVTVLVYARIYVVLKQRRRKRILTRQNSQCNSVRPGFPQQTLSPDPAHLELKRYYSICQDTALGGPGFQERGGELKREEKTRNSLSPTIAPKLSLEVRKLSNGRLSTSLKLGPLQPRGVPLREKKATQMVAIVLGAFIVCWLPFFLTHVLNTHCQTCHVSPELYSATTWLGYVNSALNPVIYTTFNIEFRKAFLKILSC
Chain of 5-HT2B (P41595 whole entry, species assumed): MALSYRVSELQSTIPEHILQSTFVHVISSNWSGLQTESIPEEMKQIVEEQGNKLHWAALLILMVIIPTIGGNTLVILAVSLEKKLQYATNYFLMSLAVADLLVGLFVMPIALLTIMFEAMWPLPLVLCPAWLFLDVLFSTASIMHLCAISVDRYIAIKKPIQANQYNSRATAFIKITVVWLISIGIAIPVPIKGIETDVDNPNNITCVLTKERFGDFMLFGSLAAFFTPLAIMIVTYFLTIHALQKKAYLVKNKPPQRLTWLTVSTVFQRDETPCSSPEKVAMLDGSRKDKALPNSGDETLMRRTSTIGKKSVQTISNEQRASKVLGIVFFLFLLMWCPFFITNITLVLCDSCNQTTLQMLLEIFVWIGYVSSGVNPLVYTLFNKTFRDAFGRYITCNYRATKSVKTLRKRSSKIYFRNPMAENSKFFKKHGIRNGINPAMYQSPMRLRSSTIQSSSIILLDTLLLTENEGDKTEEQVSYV

In the case of `CN1CCN(c2cccc3cc(S(=O)(=O)c4cccc(F)c4)cnc23)CC1` [GSK215083, 3-[(3-fluorophenyl)sulfonyl]-8-(4-methyl-1-piperazinyl)quinoline], the “cortex to cerebellum ratio” value fell in the range of 1 to 1 with 5-HT6 receptors [1] (setting [4]), 1.2 to 1 with 5-HT6 receptors [1] (setting [5]) and 1.1 to 1 with 5-HT6 receptors [1] (setting [6]). The “striatum to cerebellum ratio” value with 5-HT6 receptors [1] (setting [4]) lay in the range of 1.1 to 1; with 5-HT6 receptors [1] (setting [5]) it was 1.5 to 1; with 5-HT6 receptors [1] (setting [6]), 1.3 to 1. Further, the Ki was 0.724 nM on 5-HT2A; 0.151 nM in data set [2] (human recombinant 5-HT6 receptor stably expressed in the HeLa cell line, [^3H]LSD as radioligand); 912 nM at Dopamine D2; 9.12 nM at 5-HT2B; 977 nM at α1B adrenoreceptor; 69.2 nM at 5-HT1D. The Ki on 5-HT2C is 17.8 nM; at 5-HT1A it was above 7080 nM; at 5-HT1B, 105 nM; at Dopamine D3, 977 nM; at 5-HT7 it was above 10000 nM. Further, the “selectivity for the human 5-HT6 receptor” value in data set [2] (over other receptors screened to date) is recorded as “selective for the human 5-HT6 receptor over other receptors screened to date”.

Take `[11CH3]N1CCN(c2cccc3cc(S(=O)(=O)c4cccc(F)c4)cnc23)CC1` [[^11C]GSK215083, [^11C-N-methyl]-3-(3-Fluoro-benzenesulfonyl)-8-(4-methyl-piperazin-1-yl)-quinoline]: in the data set on 5-HT6 receptors [1] (setting [7]), the “cortex to cerebellum ratio” value is 1.5 to 1 and the “striatum to cerebellum ratio” value is listed as 2 to 1. Further, in the data set on 5-HT6 receptors [3] (pig brain), the concentration in cerebellum entry is given as “low” and the “rank order of regional brain concentrations” value is “striatum>cortical regions>cerebellum”. In the data set with 5-HT6 receptors [3] (pig brain, intravenous 1 minute bolus), the “time of peak regional tissue concentrations post injection” value was “approximately 20 min”. Besides, in the data set with 5-HT6 receptors [3] (pig, intravenous 1 minute bolus), the brain entry result is on record as “readily enters the brain”.
